Measured values: PubChem BioAssay AID1963847 (Molecular Pharmacology Branch, DTP, NCI, 2024)

System: 415267-285-R-J2-PDC complex spheroid viability
Assay: Anticancer human tumor 415267-285-R-J2-PDC patient-derived breast carcinoma cell line growth inhibition [POLQ]
Conditions: for IC50: curve of first compound; for viability, T/C: stronger effect = lower value
Outline: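 Growth inhibition in 3D: complex spheroids (tumor PDC, HUVEC, MSC) treated with POLQ inhibitor combinations; where Cmax unknown, highest tested concentration 10 microM, except SN-38 at 1 microM.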

[1] = second compound 0.0316 µM, first compound 0.0316 µM
[2] = second compound 0.0316 µM, first compound 0.1 µM
[3] = second compound 0.0316 µM, first compound 0.316 µM
[4] = second compound 0.0316 µM, first compound 1 µM
[5] = second compound 0.0316 µM, first compound 3.16 µM
[6] = second compound 0.0316 µM, first compound 10 µM
[7] = second compound 0.1 µM, first compound 0.0316 µM
[8] = second compound 0.1 µM, first compound 0.1 µM
[9] = second compound 0.1 µM, first compound 0.316 µM
[10] = second compound 0.1 µM, first compound 1 µM
[11] = second compound 0.1 µM, first compound 3.16 µM
[12] = second compound 0.1 µM, first compound 10 µM
[13] = second compound 0.316 µM, first compound 0.0316 µM
[14] = second compound 0.316 µM, first compound 0.1 µM
[15] = second compound 0.316 µM, first compound 0.316 µM
[16] = second compound 0.316 µM, first compound 1 µM
[17] = second compound 0.316 µM, first compound 3.16 µM
[18] = second compound 0.316 µM, first compound 10 µM
[19] = second compound 1 µM, first compound 0.0316 µM
[20] = second compound 1 µM, first compound 0.1 µM
[21] = second compound 1 µM, first compound 0.316 µM
[22] = second compound 1 µM, first compound 1 µM
[23] = second compound 1 µM, first compound 3.16 µM
[24] = second compound 1 µM, first compound 10 µM
[25] = second compound 3.16 µM, first compound 0.0316 µM
[26] = second compound 3.16 µM, first compound 0.1 µM
[27] = second compound 3.16 µM, first compound 0.316 µM
[28] = second compound 3.16 µM, first compound 1 µM
[29] = second compound 3.16 µM, first compound 3.16 µM
[30] = second compound 3.16 µM, first compound 10 µM
[31] = second compound 10 µM, first compound 0.0316 µM
[32] = second compound 10 µM, first compound 0.1 µM
[33] = second compound 10 µM, first compound 0.316 µM
[34] = second compound 10 µM, first compound 1 µM
[35] = second compound 10 µM, first compound 3.16 µM
[36] = second compound 10 µM, first compound 10 µM
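Also: spheroids exposed to compounds for one week before readout.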
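For viability, T/C in this document: luminescence used as stand-in measure of viable cells; 100% = DMSO vehicle control viability.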

In the case of C=CC(=O)N1CCN(c2nc(=O)n(-c3c(C)ccnc3C(C)C)c3nc(-c4c(O)cccc4F)c(F)cc23)C(C)C1 (stereo unspecified) + Nc1ccc(C#CCN(C(=O)Cc2ncc(C(F)(F)F)cc2C(F)(F)F)c2ccc(F)cc2)nn1, the IC50 (second compound 0.0316 µM) is reported as greater than 10000 nM, the IC50 (second compound 0.1 µM) is reported as greater than 10000 nM and the IC50 (second compound 0.316 µM) is reported as greater than 10000 nM. For the same compound, the IC50 (second compound 1 µM) was greater than 10000 nM, the IC50 (second compound 3.16 µM) was greater than 10000 nM and the IC50 (second compound 10 µM) was greater than 10000 nM. The viability, T/C [1] was 99.7%, the viability, T/C [2] was 110% and the viability, T/C [3] was 121%. It also gave a viability, T/C [4] of 114%, a viability, T/C [5] of 104% and a viability, T/C [6] of 99.6%. The viability, T/C [7] was 98.5%, the viability, T/C [8] was 103% and the viability, T/C [9] was 94.7%. The viability, T/C [10] was 100%, the viability, T/C [11] was 103% and the viability, T/C [12] was 105%. It also gave a viability, T/C [13] of 97.5%, a viability, T/C [14] of 114% and a viability, T/C [15] of 91.8%. The viability, T/C [16] was 93%, the viability, T/C [17] was 98.2% and the viability, T/C [18] was 92.5%. The viability, T/C [19] was 111%, the viability, T/C [20] was 91.7% and the viability, T/C [21] was 113%. For the same compound, the viability, T/C [22] was 106%, the viability, T/C [23] was 96% and the viability, T/C [24] was 105%. For the same compound, the viability, T/C [25] was 99.1%, the viability, T/C [26] was 106% and the viability, T/C [27] was 107%. It also gave a viability, T/C [28] of 102%, a viability, T/C [29] of 99.1% and a viability, T/C [30] of 104%. For the same compound, the viability, T/C [31] was 94.5%, the viability, T/C [32] was 112% and the viability, T/C [33] was 106%. It also gave a viability, T/C [34] of 107%, a viability, T/C [35] of 104% and a viability, T/C [36] of 102%.

CC1COCCN1c1cc(C2(O)CC3CCC(C2)O3)c2cnn(-c3ccn[nH]3)c2n1 (stereo unspecified) + Cc1cccc(N(C)C(=O)C2C(O)CCN2c2nc(C)cc(C(F)(F)F)c2C#N)c1 gave an IC50 (second compound 0.0316 µM) of less than 31.6 nM, an IC50 (second compound 0.1 µM) of less than 31.6 nM and an IC50 (second compound 0.316 µM) of less than 31.6 nM. It also gave an IC50 (second compound 1 µM) of less than 31.6 nM, an IC50 (second compound 3.16 µM) of less than 31.6 nM and an IC50 (second compound 10 µM) of less than 31.6 nM. It also gave a viability, T/C [1] of 18.2%, a viability, T/C [2] of 7.78% and a viability, T/C [3] of 5.17%. The viability, T/C [4] was 4.79%, the viability, T/C [5] was 4.69% and the viability, T/C [6] was 4.06%. For the same compound, the viability, T/C [7] was 17.1%, the viability, T/C [8] was 6.52% and the viability, T/C [9] was 4.78%. For the same compound, the viability, T/C [10] was 4.34%, the viability, T/C [11] was 5.05% and the viability, T/C [12] was 5.28%. It also gave a viability, T/C [13] of 17.9%, a viability, T/C [14] of 5.44% and a viability, T/C [15] of 5.64%. It also gave a viability, T/C [16] of 4.91%, a viability, T/C [17] of 4.67% and a viability, T/C [18] of 4.41%. For the same compound, the viability, T/C [19] was 24.7%, the viability, T/C [20] was 6.22% and the viability, T/C [21] was 4.58%. It also gave a viability, T/C [22] of 4.12%, a viability, T/C [23] of 4.85% and a viability, T/C [24] of 5.19%. It also gave a viability, T/C [25] of 20.4%, a viability, T/C [26] of 6.14% and a viability, T/C [27] of 5.01%. The viability, T/C [28] was 4.84%, the viability, T/C [29] was 4.41% and the viability, T/C [30] was 4.56%. It also gave a viability, T/C [31] of 21.4%, a viability, T/C [32] of 6.79% and a viability, T/C [33] of 5.41%. For the same compound, the viability, T/C [34] was 5.44%, the viability, T/C [35] was 4.9% and the viability, T/C [36] was 4.36%.

COc1cccc2c1C(=O)c1c(O)c3c(c(O)c1C2=O)CC(O)(C(=O)CO)CC3OC1CC(N)C(O)C(C)O1 (stereo unspecified) + Cc1cccc(N(C)C(=O)C2C(O)CCN2c2nc(C)cc(C(F)(F)F)c2C#N)c1 was tested, and the IC50 (second compound 0.0316 µM) was less than 31.6 nM, the IC50 (second compound 0.1 µM) was less than 31.6 nM and the IC50 (second compound 0.316 µM) was less than 31.6 nM. For the same compound, the IC50 (second compound 1 µM) was less than 31.6 nM, the IC50 (second compound 3.16 µM) was less than 31.6 nM and the IC50 (second compound 10 µM) was less than 31.6 nM. It also gave a viability, T/C [1] of 37.8%, a viability, T/C [2] of 18.6% and a viability, T/C [3] of 4.26%. The viability, T/C [4] was 0.86%, the viability, T/C [5] was 1% and the viability, T/C [6] was 2.87%. The viability, T/C [7] was 38.3%, the viability, T/C [8] was 11.9% and the viability, T/C [9] was 5.5%. For the same compound, the viability, T/C [10] was 0.82%, the viability, T/C [11] was 0.95% and the viability, T/C [12] was 3.55%. For the same compound, the viability, T/C [13] was 36.5%, the viability, T/C [14] was 13.7% and the viability, T/C [15] was 4.69%. It also gave a viability, T/C [16] of 0.81%, a viability, T/C [17] of 1.46% and a viability, T/C [18] of 2.87%. It also gave a viability, T/C [19] of 42.5%, a viability, T/C [20] of 8.66% and a viability, T/C [21] of 4.35%. For the same compound, the viability, T/C [22] was 0.62%, the viability, T/C [23] was 1.26% and the viability, T/C [24] was 2.94%. It also gave a viability, T/C [25] of 40.4%, a viability, T/C [26] of 13.7% and a viability, T/C [27] of 5.27%. The viability, T/C [28] was 0.66%, the viability, T/C [29] was 1.47% and the viability, T/C [30] was 2.63%. For the same compound, the viability, T/C [31] was 24.7%, the viability, T/C [32] was 9.06% and the viability, T/C [33] was 7.17%. For the same compound, the viability, T/C [34] was 0.84%, the viability, T/C [35] was 3.16% and the viability, T/C [36] was 3.87%.
